Assay results from PMC10890321, “Identification of Mortalin as the Main Interactor of Mycalin A, a Poly-Brominated C-15 Acetogenin Sponge Metabolite, by MS-Based Proteomics” (Marine Drugs, 2024).

Target: T1, mortalin (GRP75, mitochondrial Stress-70 protein) (Homo sapiens, UniProt P38646)
T1 construct: gene HSPA9
Test: SPR competition (mortalin pre-incubated with MKT-077, injected over immobilized p53)
Assay type: binding

T1 sequence (P38646 47-679): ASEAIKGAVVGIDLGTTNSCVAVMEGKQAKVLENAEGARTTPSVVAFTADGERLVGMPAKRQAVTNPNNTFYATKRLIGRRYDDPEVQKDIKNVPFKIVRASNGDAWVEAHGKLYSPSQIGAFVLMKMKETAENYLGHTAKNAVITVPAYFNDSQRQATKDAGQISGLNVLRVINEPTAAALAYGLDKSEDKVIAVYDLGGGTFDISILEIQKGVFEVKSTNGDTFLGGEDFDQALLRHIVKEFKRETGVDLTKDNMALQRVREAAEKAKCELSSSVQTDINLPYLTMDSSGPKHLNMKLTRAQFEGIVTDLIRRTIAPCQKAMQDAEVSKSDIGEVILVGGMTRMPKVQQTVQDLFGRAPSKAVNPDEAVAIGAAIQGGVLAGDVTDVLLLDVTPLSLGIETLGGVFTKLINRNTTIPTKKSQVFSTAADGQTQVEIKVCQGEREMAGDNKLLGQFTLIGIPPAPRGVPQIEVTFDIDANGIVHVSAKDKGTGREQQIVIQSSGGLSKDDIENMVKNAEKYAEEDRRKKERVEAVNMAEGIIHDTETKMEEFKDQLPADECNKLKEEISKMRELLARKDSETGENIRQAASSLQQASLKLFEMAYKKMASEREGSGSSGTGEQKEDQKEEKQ
T1 sequence (P04637 whole entry partner): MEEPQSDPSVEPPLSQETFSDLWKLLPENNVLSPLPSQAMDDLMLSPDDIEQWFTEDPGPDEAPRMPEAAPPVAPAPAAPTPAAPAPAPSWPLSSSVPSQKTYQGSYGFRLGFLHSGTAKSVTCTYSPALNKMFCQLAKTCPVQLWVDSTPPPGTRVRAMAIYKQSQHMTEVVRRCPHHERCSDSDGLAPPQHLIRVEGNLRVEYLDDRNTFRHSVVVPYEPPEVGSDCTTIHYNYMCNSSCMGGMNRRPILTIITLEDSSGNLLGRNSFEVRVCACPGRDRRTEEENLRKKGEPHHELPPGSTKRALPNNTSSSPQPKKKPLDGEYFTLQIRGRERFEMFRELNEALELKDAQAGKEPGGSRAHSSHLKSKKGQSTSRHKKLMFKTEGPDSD

SMILES: CCn1c(=O)/c(=C2\Sc3ccccc3N2C)s/c1=C\c1cccc[n+]1CC [MKT-077]
- SPR competition (mortalin pre-incubated with MKT-077, injected over immobilized): 843.4 nM
